Test results taken from PMC9965539, “Adverse Toxic Effects of Tyrosine Kinase Inhibitors on Non-Target Zebrafish Liver (ZFL) Cells” (International Journal of Molecular Sciences, 2023).
Read-outs that look alike come from different tables or passages of the source.

Assays:
HepG2 cells [1] = settings: 20 μM; ref Mingard et al. 46; cited from earlier work
[2] = tested on: zebrafish liver cells (ZFL); assay: Propidium iodide live/dead staining by flow cytometry; assay type: cell-based
Procedure: Benzo[a]pyrene (50 μM), an indirect-acting genotoxic agent which requires metabolic activation for its genotoxic effects, and etoposide (0.17 μM), a direct-acting genotoxic agent, were selected as positive controls. After 72 h, floating and adherent cells were collected, resuspended in ice-cold 1x PBS, and immediately analyzed. Propidium iodide (PI) at a final concentration of 1 μg/mL was added to the cells 5 min before the start of measurements using the MACSQuant Analyzer 10 flow cytometer (Miltenyi Biotech, Bergisch Gladbach, Germany). MASCQuantifiy software (Miltenyi Biotech, Bergisch Gladbach, Germany) was used to quantify PI negative and positive cells. The experiments were repeated three times independently. Statistical significance between the treated groups and control was determined by one-way ANOVA with post hoc multiple comparison Dunett’s test using GraphPad Prism V6 (GraphPad Software, La Jolla, CA, USA). * p < 0.05 was considered statistically significant.

primary rat hepatocytes = settings: cited from earlier work
[3] = tested on: certain target cancer cells; design: method as in ref 56, 57 (DAS), 58, 59 (REG); settings: in vitro; 57 (DAS), 58, 59 (REG); cited from earlier work
[4] = tested on: zebrafish liver cells (ZFL); assay: Cell cycle analysis with flow cytometry; assay type: cell-based; settings: 72 h; for effect on cell cycle progression: concentration-dependent, parallel decrease in S-phase fraction
Procedure: ZFL cells were seeded onto T25 culture plates at a density of 450,000 cells for 24 h. […] The positive control was etoposide (0.17 μM), which is known to arrest cells in the G2/M phase of the cell cycle. After 72 h, cells were trypsinized (0.25% trypsin-EDTA) and washed with 1x PBS before fixation in 4% paraformaldehyde (PFA). For flow cytometric analysis, fixed cells were washed in cold 1x PBS and stained with Hoechst 33258 dye (diluted in 0.1% Triton X-100 1:500) as described by Stampar et al.. Flow cytometric measurements were performed using a MACSQuant Analyzer 10 and the experiment was repeated three times independently. Each time, 20,000 single cells were recorded per experimental point. The data obtained were analyzed using FlowJo V10 software (Becton Dickinson, Franklin Lakes, NJ, USA). Statistical analysis for cell cycle was performed by the two-way ANOVA with Fisher’s LSD test using GraphPad Prism V6 (GraphPad Software, La Jolla, CA, USA). * p < 0.05, ** (p < 0.01), *** (p < 0.001) were considered statistically significant.

mammalian cells = tested on: mammalian cells; design: method as in EMEA documents (69); settings: ref EMEA documents (69); cited from earlier work
[5] = tested on: primary human hepatocytes; settings: cited from earlier work
[6] = tested on: targeted and non-targeted human chronic myeloid leukemia cancer cells; design: method as in doi:10.1182/blood.V124.21.5510.5510; settings: therapeutic concentrations (NIL 48 h); cited from earlier work
[7] = MTS assay, viability of ZFL cells; assay type: cell-based, zebrafish; settings: zebrafish, ZFL cells (zebrafish liver cell line), ZFL cells, read-out: IC50 for TKIs Cytotoxicity (95% Confidence Interval); for IC50 at 24 h: 24 h exposure; for IC50 at 48 h: 48 h exposure; for IC50 at 72 h: 72 h exposure
Procedure: (§1) The viability of ZFL cells after 24, 48, and 72 h of exposure to TKIs was determined using the tetrazolium-based (MTS) assay (Cell Titer 96 AQueous Non-Radioactive Cell Proliferation Assay; Promega, Madison, WI, USA) as previously described by Novak et al.. Cells were seeded in 96-well microtiter plates (Corning Costar Corporation, New York, NY, USA) at a density of 7000 cells/well. […] Three independent experiments were performed, each with five replicates per treatment point. The statistical significance between the treated groups and the solvent control was determined by Student’s t-test using GraphPad Prism V6 (GraphPad Software, La Jolla, CA, USA). *** (p < 0.001)was considered statistically significant.

[8] = tested on: zebrafish liver cells (ZFL); assay: MTS assay, viability of ZFL cells; assay type: cell-based; settings: 24, 48, 72 h; dose- and time-dependent; ERL and NIL up to their maximum solubility
Procedure: as §1

rats = tested on: rats; design: method as in EMEA documents (69); settings: ref EMEA documents (69); cited from earlier work
[9] = tested on: zebrafish liver cells (ZFL); assay: Micronucleus detection by flow cytometry; assay type: cell-based; settings: 72 h
Procedure: ZFL cells were seeded onto 24-well culture plates (Nunclon) at a density of 35,000 cells per well for 24 h. […] Etoposide (0.17 μM and 0.68 μM) was used as a positive control. After 72 h, cells were placed on ice for 20 min, and subsequently a 0.05 mg/mL EMA solution was added to each well. The cells were placed on ice for 30 min and exposed to light for photoactivation of the EMA fluorochrome. Afterwards, cells were washed and resuspended in lysis solution (0.584 mg/mL NaCl, 1 mg/mL sodium citrate, and 0.3 μL/mL Triton X-100) containing 0.2 μM SYTOX Green and 0.25 mg/mL RNAse A, and incubated for 1 h in the dark at 37 °C. After incubation, lysis solution (85.6 mg/mL sucrose and 15 mg/mL citric acid) containing 0.2 μM SYTOX Green was added to the wells of the plate and incubated for a further 30 min at room temperature in the dark. Cells were analyzed on the same day using MACSQuant Analyzer 10 flow cytometer. MASCQuantify Software 2.11. was used to analyze each sample, and the percentage of micronuclei was determined after the acquisition of a total of 20,000 gated nuclei events, excluding EMA-positive events. One-way ANOVA with post hoc multiple comparison Dunett’s test using GraphPad Prism V6 (GraphPad Software, Carlsbad, CA, USA) was carried out. * p < 0.05 and *** p < 0.0001 were considered statistically significant.

mice = tested on: mice; design: method as in EMEA documents (69); settings: ref EMEA documents (69); cited from earlier work
HepG2 cells [10] = tested on: HepG2 cells; design: method as in PMID 32397371; settings: 48 h exposure; cited from earlier work
Swiss albino mice = settings: cited from earlier work
[11] = tested on: human hepatocellular carcinoma SK-HEP-1 cells; settings: approximately 10 μM, 24 h; cited from earlier work
[12] = tested on: Huh7, A549 and MCF-7 cells; settings: cited from earlier work
[13] = tested on: human hepatocellular carcinoma SMMC-7721 cells; settings: approximately 5 μM, 24 h; cited from earlier work
Huh-7 cells [14] = tested on: Huh-7 cells; design: method as in PMID 32397371; settings: 48 h exposure; cited from earlier work
HepG2 cells [15] = tested on: HepG2 cells; design: method as in PMID 32913557; settings: 1 µM for 24 h; cited from earlier work
Huh-7 cells [16] = settings: 72 h; cited from earlier work
[17] = tested on: liver of male albino rats; design: method as in ref 64 = [64]; 64. Diab A.A.A. El-aziz S.A.A. Hendawy A.A. Hamza R.Z. Salim D.M.M. Protective Effect of Antioxidants Combinations (Vit A, C, E and Selenium) (Antox Drug) against Oxidative Stress and Cellular Toxicit; settings: 10 mg/kg body weight daily for two weeks; cited from earlier work
[18] = tested on: human colon adenocarcinoma HT-29 cell line; settings: 16 uM for 12 h; cited from earlier work

Cc1nc(Nc2ncc(C(=O)Nc3c(C)cccc3Cl)s2)cc(N2CCN(CCO)CC2)n1 [DAS, dasatinib]
apoptosis (HepG2 cells [1]): induced apoptosis | FSC/SSC dot plot shift, apoptosis ([2]; all tested DAS concentrations (0.015-0.06 μM), 72 h): induction of apoptosis | exposed cells degraded ([2]; lowest DAS concentration (0.015 μM), 72 h): more than 50% | IC50 (primary rat hepatocytes; 48 h exposure, read-out: 50% growth inhibition): 21.1 µM | cytotoxicity (primary rat hepatocytes): cytotoxic only to primary rat hepatocytes | DNA damage assessed by comet assay [3]: induce DNA damage | concentration that induced G0/G1 cell cycle arrest with decrease in number of cells in S phase [4]: 0.03 µM | effect on cell cycle progression [4]: arrest of the cell cycle in the G0/G1 phase | structural chromosomal aberrations (mammalian cells): increased the number of structural chromosomal aberrations | cytotoxicity [5]: not to primary human hepatocytes | centromere positive micronuclei [6]: increased the number of centromere positive micronuclei | IC50 at 24 h [7]: 0.64 µM | IC50 at 48 h [7]: 0.24 µM | IC50 at 72 h [7]: 0.16 µM | viability of the ZFL cells [8]: reduced | in vivo micronucleus assay (rats): negative | MNi in representative dot plot ([9]; 0.015 μM): increased amount of MNi | MNi in representative dot plot ([9]; 0.03 μM): increased amount of MNi | MNi in representative dot plot ([9]; 0.06 μM): low amount of nuclei and MNi

CNC(=O)c1cc(Oc2ccc(NC(=O)Nc3ccc(Cl)c(C(F)(F)F)c3)cc2)ccn1 [SOR, sorafenib]
in vivo micronucleus assay (mice): negative | percentage of PI negative cells ([2]; 72 h exposure, low concentrations): did not significantly decrease | IC50 (primary rat hepatocytes; 24 h, read-out: IC50): 5.46 µM | concentration with significant change in cell viability (HepG2 cells [10]): 5 µM | concentration that induced G0/G1 cell cycle arrest with decrease in number of cells in S phase [4]: 1 µM | effect on cell cycle progression [4]: arrest of the cell cycle in the G0/G1 phase | increase in MNi formation (Swiss albino mice): approximately 10 fold | structural chromosomal aberrations (mammalian cells): increased the number of structural chromosomal aberrations | MNi formation [11]: did not increase MNi formation | IC50 ([5]; 24 h): 10 µM | IC50 at 24 h [7]: 6.93 µM | IC50 at 48 h [7]: 3.36 µM | IC50 at 72 h [7]: 2.71 µM | viability of the ZFL cells [8]: reduced | DNA damage in vitro [12]: induced DNA damage | MNi formation [13]: did not increase MNi formation | concentration with significant change in cell viability (Huh-7 cells [14]): 2 µM | DNA strand breaks (alkaline comet assay) (HepG2 cells [15]): did not significantly increase | concentration with cell cycle arrest (Huh-7 cells [16]): 3.7 µM | DNA damage in liver (comet assay in vivo) [17]: induced DNA damage | MNi frequency ([9]; non-cytotoxic concentrations): did not significantly increase | DNA double strand breaks (neutral comet assay) [18]: did not significantly increase DNA double strand breaks
